Reference: publication PMC3105312 (Nature Communications, 2011)

Target: PspF1-275 (Escherichia coli, UniProt P37344)
Conditions: 10 μM protein, pH 8.0, on ice; labelled compound; comparative control

Sequence of PspF1-275 (P37344 1-275): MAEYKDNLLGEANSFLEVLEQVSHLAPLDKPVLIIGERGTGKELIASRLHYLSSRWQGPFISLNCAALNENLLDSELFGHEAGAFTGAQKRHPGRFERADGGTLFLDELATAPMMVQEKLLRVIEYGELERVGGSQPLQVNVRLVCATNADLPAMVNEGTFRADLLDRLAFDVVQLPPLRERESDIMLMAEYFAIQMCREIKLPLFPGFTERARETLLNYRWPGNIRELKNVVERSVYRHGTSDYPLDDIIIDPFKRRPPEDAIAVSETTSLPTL

Nc1ncnc2c1ncn2[C@@H]1O[C@H](COP(=O)(O)OP(=O)(O)OP(=O)(O)O)[C@@H](O)[C@H]1O [ATP]
ultraviolet crosslinking of [α-32P]ATP, SDS-PAGE, phosphorimaging: at a level comparable to that of the structurally and functionally characterized EBP PspF
